From patent publication US10874743B2, “IRAK degraders and uses thereof” (Kymera Therapeutics, Inc., priority 2017, dated 2020)

Legend:
OCI-LY10 cells = test: OCI-LY-10 CTG cell viability assay (EC50); format: cell-based; details: Homo sapiens, 96 h, CellTiter-Glo cell viability, 4 days incubation, top concentration 10 μM, read-out: OCI-LY10 IRAK4 EC50
Description: A CTG cell viability assay using OCI-LY-10 cells was run to determine compound-mediated cell viability (EC50).
Compound-mediated viability effect on OCI-LY10 was quantitatively determined using the CellTiter-Glo® Luminescent Cell Viability Assay kit from Promega (Catalog number G7570) following manufacturer's recommended procedures. […] Compounds were then added to the assay plate with final top concentration of 10 μM and 1:3 dilution series with total of 9 doses. The final DMSO concentration was normalized to 0.2%. The assay plates were incubated at 37° C. for 4 days under 5% CO2. Then the assay plate was equilibrated at room temperature for 10 minutes. […] The data was then analyzed by software Prism 7.0 from GraphPad and the dose response curves were fit using a three-parameter logistic equation to calculate EC50.

IRAK4 = molecular target: T1, IRAK4 (Homo sapiens, UniProt Q9NWZ3); test: OCI-LY-10 MSD assay for IRAK4 DC50; format: cell-based; set-up: endogenous in cells; host or cells: OCI-LY10; details: OCI-LY10 cells, 4 hr incubation, concentration required to degrade 50% of protein
T1 sequence (Q9NWZ3 1-460): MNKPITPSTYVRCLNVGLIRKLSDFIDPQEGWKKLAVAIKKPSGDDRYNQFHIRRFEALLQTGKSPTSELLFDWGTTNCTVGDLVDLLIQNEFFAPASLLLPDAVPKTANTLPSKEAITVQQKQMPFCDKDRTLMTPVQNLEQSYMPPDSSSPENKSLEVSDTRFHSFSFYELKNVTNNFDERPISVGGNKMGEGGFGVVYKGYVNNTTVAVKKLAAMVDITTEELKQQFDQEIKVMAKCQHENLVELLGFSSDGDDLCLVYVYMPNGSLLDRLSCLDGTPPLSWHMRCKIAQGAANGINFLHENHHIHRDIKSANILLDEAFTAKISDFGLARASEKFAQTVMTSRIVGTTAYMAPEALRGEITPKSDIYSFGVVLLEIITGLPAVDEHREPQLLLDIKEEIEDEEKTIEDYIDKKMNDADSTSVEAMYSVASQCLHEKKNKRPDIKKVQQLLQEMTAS
How it was run: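 OCI-Ly10 cells were exposed to compound for 4 hr across a 3-fold, 8-point dilution series. Lysates were made in RIPA buffer, and IRAK4 remaining was measured by MSD sandwich immunoassay with anti-IRAK4 capture and detection antibodies. DC50 was taken from a four-parameter logistic fit.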

| SMILES | EC50 (OCI-LY10 cells) | DC50 (IRAK4) |
| --- | --- | --- |
| Cn1c(=O)n(C2CCC(=O)NC2=O)c2ccc(CCCOCCOC3CCN(C(=O)c4ccc(-n5cc(NC(=O)c6coc(-c7ccnc(NCC8CC8)c7)n6)c(C(F)F)n5)cc4)CC3)cc21 (stereo not drawn) [I-517] | > 1000 nM | < 50 nM |
| CN[C@@H](C)C(=O)N[C@H](C(=O)N1Cc2cc(OCCOCCOCCOCCOCCOCCNC(=O)c3ccc(-n4cc(NC(=O)c5coc(-c6ccnc(NCC7CC7)c6)n5)c(C(F)F)n4)cc3)ccc2C[C@H]1C(=O)N[C@@H]1CCCc2ccccc21)C(C)(C)C [I-520, 2-[2-(Cyclopropylmethylamino)-4-pyridyl]-N-[3-(difluoromethyl)-1-[4-[2-[2-[2-[2-[2-[2-[[(3S)-2-[(2S)-3,3-dimethyl-2-[[(2S)-2-(methylamino)propanoyl]amino]butanoyl]-3-[[(1R)-tetralin-1-yl]carbamoyl]-3,4-dihydro-1H-isoquinolin-7-yl]oxy]ethoxy]ethoxy]ethoxy]ethoxy]ethoxy]ethylcarbamoyl]phenyl]-pyrazol-4-yl]oxazole-4-carboxamide] | > 1000 nM | 500 to 1000 nM |
| C=C1N(C)c2c(CCCOCCCN(C)C(=O)c3ccc(-n4cc(NC(=O)c5coc(-c6ccnc(NCC7CC7)c6)n5)c(C(F)F)n4)cc3)cccc2N1C1CCC(=O)NC1=O (stereo not drawn) [I-473] | 50 to 100 nM | < 50 nM |
| CN[C@@H](C)C(=O)N[C@H](C(=O)N1Cc2cc(OCCOCCOCCOCCOCCOCCNCc3ccc(-n4cc(NC(=O)c5coc(-c6ccnc(NCC7CC7)c6)n5)c(C(F)F)n4)cc3)ccc2C[C@H]1C(=O)N[C@@H]1CCCc2ccccc21)C(C)(C)C [I-680, 2-[2-(Cyclopropylmethylamino)-4-pyridyl]-N-[3-(difluoromethyl)-1-[4-[[2-[2-[2-[2-[2-[2-[[(3S)-2-[(2S)-3,3-dimethyl-2-[[(2S)-2-(methylamino)propanoyl]amino]butanoyl]-3-[[(1R)-tetralin-1-yl]carbamoyl]-3,4-dihydro-1H-isoquinolin-7-yl]oxy]ethoxy]ethoxy]ethoxy]ethoxy]ethoxy]ethylamino]methyl]-phenyl]pyrazol-4-yl]oxazole-4-carboxamide] | > 1000 nM | > 1000 nM |
| O=C1CCC(N2C[C@H](c3cccc(C#CCN4CCO[C@@H](CNC(=O)c5ccc(-n6cc(NC(=O)c7coc(-c8ccnc(NCC9CC9)c8)n7)c(C(F)F)n6)cc5)C4)c3)OC2=O)C(=O)N1 (stereo partly drawn) [I-508] | 50 to 100 nM | < 50 nM |
| O=C1CCC(N2Cc3cc(CNC(=O)NCCOCCOCCNCc4ccc(-n5cc(NC(=O)c6coc(-c7ccnc(NCC8CC8)c7)n6)c(C(F)F)n5)cc4)ccc3C2=O)C(=O)N1 (stereo not drawn) [I-529] | 50 to 100 nM | 50 to 100 nM |
| CN(C[C@H]1CN(CCCc2ccc3c(c2)n(C)c(=O)n3C2CCC(=O)NC2=O)CCO1)C(=O)c1ccc(-n2cc(NC(=O)c3coc(-c4ccnc(NCC(F)(F)F)c4)n3)c(C(F)F)n2)cc1 (stereo partly drawn) [I-487] | 50 to 100 nM | < 50 nM |
| Cn1cc(NC(=O)c2coc(-c3ccnc(NCC(F)(F)F)c3)n2)c(CNCCOCCOCCOCCOCCOCCNc2cccc3c2C(=O)N(C2CCC(=O)NC2=O)C3=O)n1 (stereo not drawn) [I-522] | > 1000 nM | > 1000 nM |
| Cn1c(=O)n(C2CCC(=O)NC2=O)c2ccc(CCCN3CCO[C@H](CNCc4ccc(-n5cc(NC(=O)c6coc(-c7ccnc(NCC(F)(F)F)c7)n6)c(C(N)=O)n5)cc4)C3)cc21 (stereo partly drawn) [I-572] | 100 to 500 nM | < 50 nM |
| NC(=O)c1nn(-c2ccc(CNCCOCCOCCOC(=O)NCc3ccc4c(c3)CN(C3CCC(=O)NC3=O)C4=O)cc2)cc1NC(=O)c1coc(-c2ccnc(NCC(F)(F)F)c2)n1 (stereo not drawn) [I-579] | > 1000 nM | 100 to 500 nM |
| O=C1CCC(N2Cc3cc(CNC(=O)OCCNCc4ccc(-n5cc(NC(=O)c6coc(-c7ccnc(NCC8CC8)c7)n6)c(C(F)F)n5)cc4)ccc3C2=O)C(=O)N1 (stereo not drawn) [I-558] | < 50 nM | < 50 nM |
| Cn1c(=O)n(C2CCC(=O)NC2=O)c2ccc(CCCOCCOCCNC(=O)c3ccc(-n4cc(NC(=O)c5coc(-c6ccnc(NCC7CC7)c6)n5)c(C(F)F)n4)cn3)cc21 (stereo not drawn) [I-461] | < 50 nM | < 50 nM |
| NC(=O)c1nn(-c2ccc(CNCCCOCCCc3ccc4c(c3)oc(=O)n4C3CCC(=O)NC3=O)cc2)cc1NC(=O)c1coc(-c2ccnc(NCC(F)(F)F)c2)n1 (stereo not drawn) [I-567] | 500 to 1000 nM | < 50 nM |
| Cn1c(=O)n([C@H]2CCC(=O)NC2=O)c2cccc(CCCOCCOCCNCc3ccc(-n4cc(NC(=O)c5coc(-c6ccnc(NCC(F)(F)F)c6)n5)c(C(N)=O)n4)cc3)c21 [I-690, N-[3-carbamoyl-1-[4-[[2-[2-[3-[(1S)-1-(2,6-dioxo-3-piperidyl)-3-methyl-2-oxo-benzimidazol-4-yl]propoxy]ethoxy]ethylamino]methyl]phenyl]pyrazol-4-yl]-2-[2-(2,2,2-trifluoroethylamino)-4-pyridyl]oxazole-4-carboxamide] | > 1000 nM | < 50 nM |
| Cn1c(=O)n(C2CCC(=O)NC2=O)c2cccc(CCCOCCCNCc3ccc(-n4cc(NC(=O)c5coc(-c6ccnc(NCC(F)(F)F)c6)n5)c(C(F)F)n4)cc3)c21 (stereo not drawn) [I-535] | > 1000 nM | < 50 nM |
| Cn1c(=O)n(C2CCC(=O)NC2=O)c2ccc(N3CCN(CCOCCNCc4ccc(-n5cc(NC(=O)c6coc(-c7ccnc(NCC(F)(F)F)c7)n6)c(C(N)=O)n5)cc4)CC3)cc21 (stereo not drawn) [I-564] | > 1000 nM | 100 to 500 nM |
| Cn1c(=O)n(C2CCC(=O)NC2=O)c2cccc(CCCOCCCNC(=O)c3ccc(-n4cc(NC(=O)c5coc(-c6ccnc(NCC7CC7)c6)n5)c(C(F)F)n4)cc3)c21 (stereo not drawn) [I-460] | < 50 nM | < 50 nM |
| Cn1c(=O)n(C2CCC(=O)NC2=O)c2ccc(CCCN3CCO[C@H](CCNCc4ccc(-n5cc(NC(=O)c6coc(-c7ccnc(NCC(F)(F)F)c7)n6)c(C(N)=O)n5)cc4)C3)cc21 (stereo partly drawn) [I-576] | < 50 nM | < 50 nM |
| Cn1c(=O)n(C2CCC(=O)NC2=O)c2ccc(CCCOCCOCCNC(=O)c3ccc(-n4cc(NC(=O)c5coc(-c6ccnc(NCC7CC7)c6)n5)c(C(F)F)n4)cc3F)cc21 (stereo not drawn) [I-470] | < 50 nM | < 50 nM |
| CN(C[C@H]1CN(CCCc2ccc3c(c2)n(C)c(=O)n3C2CCC(=O)NC2=O)CCO1)C(=O)c1ccc(-n2cc(NC(=O)c3coc(-c4ccnc(NCC5CC5)c4)n3)c(C(F)F)n2)cc1 (stereo partly drawn) [I-490] | < 50 nM | < 50 nM |
| CN[C@@H](C)C(=O)N[C@H](C(=O)N1CCC[C@H]1c1nc(C(=O)c2cccc(OCCOCCOCCOCCOCCNCc3ccc(-n4cc(NC(=O)c5coc(-c6ccnc(NCC7CC7)c6)n5)c(C(F)F)n4)cc3)c2)cs1)C1CCCCC1 [I-555] | > 1000 nM | 500 to 1000 nM |

Continued, values first:

| EC50 (OCI-LY10 cells) | DC50 (IRAK4) | SMILES |
| --- | --- | --- |
| < 50 nM | < 50 nM | Cn1c(=O)n(C2CCC(=O)NC2=O)c2ccc(CN3CCN(CCO[C@H]4C[C@H](NCc5ccc(-n6cc(NC(=O)c7coc(-c8ccnc(NCC9CC9)c8)n7)c(C(F)F)n6)cc5)C4)CC3)cc21 (stereo partly drawn) [I-583] |
| < 50 nM | < 50 nM | Cn1c(=O)n(C2CCC(=O)NC2=O)c2ccc(CNCCCCCNCc3ccc(-n4cc(NC(=O)c5coc(-c6ccnc(NCC7CC7)c6)n5)c(C(F)F)n4)cc3)cc21 (stereo not drawn) [I-542] |
| < 50 nM | < 50 nM | CN(C[C@@H]1CN(CCCc2ccc3c(c2)n(C)c(=O)n3C2CCC(=O)NC2=O)CCO1)C(=O)c1ccc(-n2cc(NC(=O)c3coc(-c4ccnc(NCC5CC5)c4)n3)c(C(F)F)n2)cc1 (stereo partly drawn) [I-488] |
| < 50 nM | < 50 nM | CN(CCCOCCCc1ccc2c(c1)n(C)c(=O)n2C1CCC(=O)NC1=O)C(=O)c1ccc(-n2cc(NC(=O)c3coc(-c4ccnc(NCC5CC5)c4)n3)c(C(F)F)n2)cc1 (stereo not drawn) [I-477] |
| < 50 nM | < 50 nM | CN(C[C@@H]1CN(CCCc2cccc3c2n(C)c(=O)n3C2CCC(=O)NC2=O)CCO1)C(=O)c1ccc(-n2cc(NC(=O)c3coc(-c4ccnc(NCC5CC5)c4)n3)c(C(F)F)n2)cc1 (stereo partly drawn) [I-514] |
| < 50 nM | < 50 nM | CN(C[C@H]1CN(CCCc2cccc3c2n(C)c(=O)n3C2CCC(=O)NC2=O)CCO1)C(=O)c1ccc(-n2cc(NC(=O)c3coc(-c4ccnc(NCC5CC5)c4)n3)c(C(F)F)n2)cc1 (stereo partly drawn) [I-513] |
| < 50 nM | < 50 nM | Cn1c(=O)n(C2CCC(=O)NC2=O)c2ccc(CN3CCN(CCO[C@H]4C[C@H](NC(=O)c5ccc(-n6cc(NC(=O)c7coc(-c8ccnc(NCC9CC9)c8)n7)c(C(F)F)n6)cc5)C4)CC3)cc21 (stereo partly drawn) [I-506] |
| < 50 nM | < 50 nM | Cn1c(=O)n(C2CCC(=O)NC2=O)c2cccc(CCCN3CCO[C@H](CNCc4ccc(-n5cc(NC(=O)c6coc(-c7ccnc(NCC8CC8)c7)n6)c(C(F)F)n5)cc4)C3)c21 (stereo partly drawn) [I-587] |
| < 50 nM | < 50 nM | O=C1CCC(n2c(=O)oc3c(CCCOCCCNC(=O)c4ccc(-n5cc(NC(=O)c6coc(-c7ccnc(NCC8CC8)c7)n6)c(C(F)F)n5)cn4)cccc32)C(=O)N1 (stereo not drawn) [I-479] |
